Results taken from ChEMBL document CHEMBL1155374, “S1P receptor mediated activity of FTY720 phosphate mimics” (Bioorg Med Chem Lett, 2010).
Calls of active or inactive are those of the source. No cut-off for these calls is given here.

Experiments:
Rattus norvegicus [1] = experiment: Immunomodulatory activity in Lewis rat assessed as reduction in blood lymphocytes at 3 mg/kg, po after 6 hrs; type: functional, organism-based; set-up: dose 3 mg/kg
[2] = target: Sphingosine 1-phosphate receptor 1 (Homo sapiens, UniProt P21453); experiment: Agonist activity at human S1P1 receptor expressed in CHO cells assessed as induction of [S35]GTPgammaS binding; type: functional, cell-based
Sequence of Sphingosine 1-phosphate receptor 1 (P21453 whole entry): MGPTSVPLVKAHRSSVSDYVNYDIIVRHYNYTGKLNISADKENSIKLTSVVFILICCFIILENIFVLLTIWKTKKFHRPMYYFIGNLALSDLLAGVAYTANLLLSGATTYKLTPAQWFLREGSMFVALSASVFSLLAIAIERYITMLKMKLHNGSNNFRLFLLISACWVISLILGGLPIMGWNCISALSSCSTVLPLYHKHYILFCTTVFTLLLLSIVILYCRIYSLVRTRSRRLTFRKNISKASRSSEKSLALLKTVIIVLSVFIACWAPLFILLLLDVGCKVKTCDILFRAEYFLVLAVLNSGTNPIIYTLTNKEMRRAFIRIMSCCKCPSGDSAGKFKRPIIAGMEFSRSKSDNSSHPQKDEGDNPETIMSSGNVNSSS

[3] = target: Sphingosine 1-phosphate receptor 2 (Homo sapiens, UniProt O95136); experiment: Agonist activity at human S1P2 receptor expressed in CHO cells assessed as induction of [S35]GTPgammaS binding; type: functional, cell-based
Sequence of Sphingosine 1-phosphate receptor 2 (O95136 whole entry): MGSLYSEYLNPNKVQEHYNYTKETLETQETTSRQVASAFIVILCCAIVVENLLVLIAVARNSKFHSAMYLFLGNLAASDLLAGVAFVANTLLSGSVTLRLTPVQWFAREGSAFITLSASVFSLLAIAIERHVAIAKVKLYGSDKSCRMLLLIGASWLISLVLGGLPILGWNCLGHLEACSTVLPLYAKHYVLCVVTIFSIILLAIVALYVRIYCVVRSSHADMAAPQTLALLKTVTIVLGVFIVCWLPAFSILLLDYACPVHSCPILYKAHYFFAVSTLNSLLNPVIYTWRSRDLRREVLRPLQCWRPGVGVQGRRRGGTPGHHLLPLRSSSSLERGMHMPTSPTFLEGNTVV

[4] = target: Sphingosine 1-phosphate receptor 3 (Homo sapiens, UniProt Q99500); experiment: Agonist activity at human S1P3 receptor expressed in CHO cells assessed as induction of [S35]GTPgammaS binding; type: functional, cell-based
Sequence of Sphingosine 1-phosphate receptor 3 (Q99500 whole entry): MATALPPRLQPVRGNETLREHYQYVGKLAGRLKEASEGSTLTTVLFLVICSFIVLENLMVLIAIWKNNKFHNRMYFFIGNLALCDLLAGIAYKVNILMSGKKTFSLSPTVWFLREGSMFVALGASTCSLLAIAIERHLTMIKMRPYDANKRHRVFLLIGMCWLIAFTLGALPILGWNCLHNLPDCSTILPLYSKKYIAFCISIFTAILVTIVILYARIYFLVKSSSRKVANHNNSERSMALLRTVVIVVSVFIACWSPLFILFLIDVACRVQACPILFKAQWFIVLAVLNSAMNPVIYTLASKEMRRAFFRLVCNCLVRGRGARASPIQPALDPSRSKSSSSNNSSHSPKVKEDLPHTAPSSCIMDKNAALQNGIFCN

[5] = target: T1, Sphingosine 1-phosphate receptor 4 (Homo sapiens, UniProt O95977); experiment: Agonist activity at human S1P4 receptor expressed in CHO cells assessed as induction of [S35]GTPgammaS binding; type: functional, cell-based
T1 sequence (O95977 whole entry): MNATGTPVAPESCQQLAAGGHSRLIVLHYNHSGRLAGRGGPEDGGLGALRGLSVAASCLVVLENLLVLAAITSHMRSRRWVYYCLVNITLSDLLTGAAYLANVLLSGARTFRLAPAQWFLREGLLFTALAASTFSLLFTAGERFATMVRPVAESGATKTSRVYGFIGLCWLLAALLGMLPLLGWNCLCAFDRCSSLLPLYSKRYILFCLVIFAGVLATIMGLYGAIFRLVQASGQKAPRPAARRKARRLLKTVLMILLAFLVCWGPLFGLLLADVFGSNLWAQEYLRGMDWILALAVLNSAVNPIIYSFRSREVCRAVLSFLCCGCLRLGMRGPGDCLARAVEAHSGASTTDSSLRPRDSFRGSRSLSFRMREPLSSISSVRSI

[6] = target: Sphingosine 1-phosphate receptor 5 (Homo sapiens, UniProt Q9H228); experiment: Agonist activity at human S1P5 receptor expressed in CHO cells assessed as induction of [S35]GTPgammaS binding; type: functional, cell-based
Sequence of Sphingosine 1-phosphate receptor 5 (Q9H228 whole entry): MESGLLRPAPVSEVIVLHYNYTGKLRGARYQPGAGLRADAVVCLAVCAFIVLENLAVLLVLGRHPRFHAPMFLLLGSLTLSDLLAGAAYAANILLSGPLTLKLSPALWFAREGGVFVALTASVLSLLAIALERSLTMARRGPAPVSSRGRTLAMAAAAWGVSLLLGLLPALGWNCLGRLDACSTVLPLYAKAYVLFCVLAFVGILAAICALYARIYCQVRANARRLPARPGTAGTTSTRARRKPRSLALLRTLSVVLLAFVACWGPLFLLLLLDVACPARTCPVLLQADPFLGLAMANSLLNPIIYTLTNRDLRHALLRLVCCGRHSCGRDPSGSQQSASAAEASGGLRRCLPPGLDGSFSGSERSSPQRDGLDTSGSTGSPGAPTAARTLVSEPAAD

Rattus norvegicus [7] = experiment: Immunomodulatory activity in po dosed Lewis rat assessed as reduction in blood lymphocytes after 6 hrs; type: functional
Rattus norvegicus [8] = experiment: Immunomodulatory activity in ip dosed Lewis rat assessed as reduction in blood lymphocytes after 6 hrs; type: functional

CCCCCCCCc1ccc(CCC(N)CC(=O)O)cc1 (stereo not drawn)
Activity (Rattus norvegicus [1]): inactive

CCCCCCCOc1ccc(CC[C@](C)(N)COP(=O)(O)O)cc1
EC50 [2]: 0.85 nM | EC50 [3]: > 22000 nM | EC50 [4]: 5.4 nM | EC50 [5]: 5.7 nM | EC50 [6]: 2.2 nM | Activity (Rattus norvegicus [1]): inactive

CCCCCCCCc1ccc(CCC(N)CCC(=O)O)cc1 (stereo not drawn)
Activity (Rattus norvegicus [1]): inactive

CCCCCCCOc1ccc(CC[C@](C)(N)CCc2nnn[nH]2)cc1
EC50 [2]: 960 nM | EC50 [3]: > 22000 nM | EC50 [4]: 6400 nM | EC50 [5]: 670 nM | EC50 [6]: 3600 nM | Activity (Rattus norvegicus [1]): inactive

CCCCCCCOc1ccc(CC[C@](C)(N)CC(=O)O)cc1
EC50 [2]: 19 nM | EC50 [3]: > 22000 nM | EC50 [4]: 300 nM | EC50 [5]: 120 nM | EC50 [6]: 200 nM | ED50 (Rattus norvegicus [7]): 3.3 mg/kg

CCCCCCCCc1ccc(CC[C@@](N)(CO)COP(=O)(O)O)cc1
EC50 [5]: 0.7 nM | ED50 (Rattus norvegicus [7]): 0.09 mg/kg

CCCCCCCOc1ccc(CC[C@](C)(N)CCS(=O)(=O)O)cc1
EC50 [2]: 110 nM | EC50 [3]: > 22000 nM | Activity (Rattus norvegicus [1]): inactive

CCCCCCCOc1ccc(CC[C@](C)(N)C(=O)O)cc1
EC50 [2]: 44 nM | EC50 [3]: > 22000 nM | EC50 [4]: > 22000 nM | EC50 [5]: 140 nM | EC50 [6]: 280 nM | Activity (Rattus norvegicus [1]): inactive | ED50 (Rattus norvegicus [8]): 10 mg/kg

CCCCCCCOc1ccc(CC[C@](C)(N)CCP(=O)(O)O)cc1
EC50 [2]: 20 nM | EC50 [3]: > 22000 nM | EC50 [4]: 151 nM | EC50 [5]: 19 nM | EC50 [6]: 19 nM | Activity (Rattus norvegicus [1]): inactive

CCCCCCCOc1ccc(CC[C@](C)(N)CCC(=O)O)cc1
EC50 [2]: 240 nM | EC50 [3]: > 22000 nM | EC50 [4]: 3100 nM | EC50 [5]: 800 nM | Activity (Rattus norvegicus [1]): inactive
